What is called LD50 is the dose expected to kill half of the subjects tested. Broadly, the mortality is the percentage killed.

This passage reports LD50 and mortality results from patent US4413005A, “Carbamate derivatives and insecticidal, miticidal or nematocidal compositions containing the same” (priority 1981, dated 1983).

Data set [1] can be described thus: Acute oral toxicity in male mice, LD50 by Litchfield-Wilcoxon method (Test Example 5). To be noted: mouse, in vivo, mortality on the seventh day. On the procedure:
Compounds of this invention were tested on male mice for acute toxicity by oral administration.

For data set [2], the system named is house fly (Musca domestica). As to the kind of experiment: Local application to house fly, LD50 by Probit method (Test Example 4). In kind it is in vivo. To be noted: topical. On the procedure:
The compound to be tested was dissolved in a predetermined amount of acetone. The solution was diluted to various concentrations and locally applied to house fly (Musca domestica).

Data set [3] relates to green rice leafhopper (Nephotettix cincticeps). As to the kind of experiment: Mortality of female adults of green rice leafhopper on paddy rice (Test Example 2). In kind it is in vivo. To be noted: 72 h. As to the method:
An emulsion of specified concentration was prepared from a 50% wettable powder of the compound to be tested and applied to the leaves of paddy rice (one-month-old seedlings) planted in a pot to fully wet the leaves. After the emulsion had been dried, the pot was covered with a net cage, into which 10 female adults of green rice leafhopper (Nephotettix cincticeps) were released. The compound of each specified concentration was tested on two pots.

For data set [4], the system named is tobacco cutworm (Spodoptera litura). As to the kind of experiment: Mortality of third-instar larvae of tobacco cutworm on cabbage (Test Example 1). As to conditions: 72 h. In kind it is in vivo. As to the method: Ten third-instar larvae of tobacco cutworm (Spodoptera litura) were placed on a cabbage (one-month-old seedling) planted in a pot, and a 50% emulsion of the compound to be tested was diluted to a specified concentration and applied to the leaves of the plant to fully wet them. The test compound of each specified concentration was tested on two pots.

SMILES strings stand for the structures. Where two headings read alike, the source gives them in different places.

Turning to `CCCCOC(=O)CCN(SN(C)C(=O)Oc1cccc2c1OC(C)(C)C2)C(C)C` [Example 25], in data set [1], the LD50 at 168 h came to 123 mg/kg. Moreover, the LD50 in data set [2] (24 h) is 50.1 mg/kg. Besides, in data set [3], the mortality at 200 ppm was found to be 65%, the mortality at 400 ppm is 90% and the mortality at 800 ppm is 100%. In data set [4], this compound returned a mortality at 500 ppm of 75%, a mortality at 1000 ppm of 90% and a mortality at 2000 ppm of 100%.
In the case of `COC(=O)CCN(SN(C)C(=O)Oc1cccc2c1OC(C)(C)C2)C(C)C` [Example 24], the 50% lethal dose (LD50) at 168 h in data set [1] turned out to be 77 mg/kg. This compound registered an LD50 in data set [2] (24 h) of 38.6 mg/kg. Further, in data set [3], the mortality at 200 ppm was found to be 60%, the mortality at 400 ppm turned out to be 90% and the mortality at 800 ppm stood at 100%. In data set [4], this compound registered a mortality at 500 ppm of 75%, a mortality at 1000 ppm of 85% and a mortality at 2000 ppm of 100%.
For the compound `CCOC(=O)CN(SN(C)C(=O)Oc1cccc2c1OC(C)(C)C2)C(=O)c1ccccc1` [Example 46], in data set [1], the LD50 at 168 h was found to be 105 mg/kg. In addition, the LD50 in data set [2] (24 h) amounted to 33.2 mg/kg. Besides, in data set [3], the mortality at 200 ppm was 65%, the mortality at 400 ppm was determined as 85% and the mortality at 800 ppm was 100%. In data set [4], this compound yielded a mortality at 500 ppm of 70%, a mortality at 1000 ppm of 85% and a mortality at 2000 ppm of 100%.
`COC(=O)CN(CC(=O)OC)SN(C)C(=O)Oc1cccc2c1OC(C)(C)C2` [Example 3] returned an LD50 at 168 h in data set [1] of 145 mg/kg. The LD50 in data set [2] (24 h) is 40 mg/kg. In addition, in data set [3], the mortality at 200 ppm was determined as 45%, the mortality at 400 ppm came out at 85% and the mortality at 800 ppm came out at 100%. In data set [4], the mortality at 500 ppm came out at 65%, the mortality at 1000 ppm came to 80% and the mortality at 2000 ppm was found to be 100%.
For `CCOC(=O)CCN(SN(C)C(=O)Oc1cccc2c1OC(C)(C)C2)C(=O)OCC` [Example 52], the LD50 at 168 h in data set [1] was found to be 125 mg/kg. In data set [2] (24 h), this compound showed an LD50 of 54.3 mg/kg. In data set [3], this compound gave a mortality at 200 ppm of 65%, a mortality at 400 ppm of 85% and a mortality at 800 ppm of 100%. For the same compound, in data set [4], the mortality at 500 ppm was found to be 70%, the mortality at 1000 ppm is 85% and the mortality at 2000 ppm was 100%.
Consider `CCCCN(CCC(=O)OC)SN(C)C(=O)Oc1cccc2c1OC(C)(C)C2` [Example 28], for which the LD50 at 168 h in data set [1] amounted to 89 mg/kg. In data set [2] (24 h), this compound displayed an LD50 of 17.7 mg/kg. For the same compound, in data set [3], the mortality at 200 ppm stood at 65%, the mortality at 400 ppm came to 90% and the mortality at 800 ppm was 100%. Also, in data set [4], the mortality at 500 ppm turned out to be 75%, the mortality at 1000 ppm was found to be 90% and the mortality at 2000 ppm was found to be 100%.
On to `CNC(=O)Oc1cccc2ccccc12` [1-Naphthyl-N--methyl-carbamate, reference compound], for which, in data set [4], the mortality at 500 ppm was 60%, the mortality at 1000 ppm is 80% and the mortality at 2000 ppm is 100%.
`CCOC(=O)CCN(SN(C)C(=O)Oc1cccc2c1OC(C)(C)C2)C(C)CC` (stereo not shown) [Example 29] returned an LD50 at 168 h in data set [1] of 120 mg/kg. In data set [2] (24 h), this compound had an LD50 of 22.5 mg/kg. Further, in data set [3], the mortality at 200 ppm is 45%, the mortality at 400 ppm turned out to be 75% and the mortality at 800 ppm came to 100%. In addition, in data set [4], the mortality at 500 ppm was determined as 60%, the mortality at 1000 ppm was 80% and the mortality at 2000 ppm is 100%.
`CCOC(=O)CN(SN(C)C(=O)Oc1cccc2c1OC(C)(C)C2)c1ccc(OC)cc1` [Example 22]: the LD50 at 168 h in data set [1] turned out to be 88 mg/kg. Further, the LD50 in data set [2] (24 h) turned out to be 45.2 mg/kg. In addition, in data set [3], the mortality at 200 ppm is 60%, the mortality at 400 ppm was 80% and the mortality at 800 ppm was found to be 100%. Moreover, in data set [4], the mortality at 500 ppm was found to be 65%, the mortality at 1000 ppm is 85% and the mortality at 2000 ppm came out at 100%.
Compound `CCCCCCCCN(CCC#N)SN(C)C(=O)Oc1cccc2c1OC(C)(C)C2` [Example 41] returned an LD50 at 168 h in data set [1] of 105 mg/kg. In data set [2] (24 h), the LD50 worked out at 54.6 mg/kg. In data set [3], the mortality at 200 ppm worked out at 60%, the mortality at 400 ppm was determined as 75% and the mortality at 800 ppm is 95%. Besides, in data set [4], the mortality at 500 ppm stood at 65%, the mortality at 1000 ppm was determined as 80% and the mortality at 2000 ppm was 100%.
With `CCOC(=O)CN(SN(C)C(=O)Oc1cccc2c1OC(C)(C)C2)C(=O)OC` [Example 49], in data set [1], the LD50 at 168 h was 105 mg/kg. Further, the LD50 in data set [2] (24 h) was 15.7 mg/kg. For the same compound, in data set [3], the mortality at 200 ppm came to 70%, the mortality at 400 ppm was 90% and the mortality at 800 ppm came to 100%. In data set [4], the mortality at 500 ppm was 75%, the mortality at 1000 ppm turned out to be 90% and the mortality at 2000 ppm worked out at 100%.
`CCOC(=O)CCN(SN(C)C(=O)Oc1cccc2c1OC(C)(C)C2)C1CCCCC1` [Example 32, 2,3-Dihydro-2,2-dimethylbenzofuran-7-yl N-(N-cyclohexyl-N-ethoxycarbonylethylaminosulfenyl)-N-methylcarbamate] yielded an LD50 at 168 h in data set [1] of 107 mg/kg. In addition, the LD50 in data set [2] (24 h) stood at 32.7 mg/kg. In data set [3], this compound came in with a mortality at 200 ppm of 55%, a mortality at 400 ppm of 75% and a mortality at 800 ppm of 100%. In addition, in data set [4], the mortality at 500 ppm was 65%, the mortality at 1000 ppm amounted to 80% and the mortality at 2000 ppm was found to be 100%.
Regarding `CCOC(=O)CCN(CC(=O)OCC)SN(C)C(=O)Oc1cccc2c1OC(C)(C)C2` [Example 9], in data set [1], the LD50 at 168 h worked out at 158 mg/kg. In data set [2] (24 h), the LD50 came to 31.7 mg/kg. Also, in data set [3], the mortality at 200 ppm was found to be 60%, the mortality at 400 ppm was 90% and the mortality at 800 ppm worked out at 100%. In data set [4], this compound had a mortality at 500 ppm of 80%, a mortality at 1000 ppm of 90% and a mortality at 2000 ppm of 100%.
In data set [1], `CN(CCC#N)SN(C)C(=O)Oc1cccc2c1OC(C)(C)C2` [Example 37] displayed an LD50 at 168 h of 65 mg/kg. For the same compound, the LD50 in data set [2] (24 h) turned out to be 11.8 mg/kg. Also, in data set [3], the mortality at 200 ppm turned out to be 65%, the mortality at 400 ppm came to 85% and the mortality at 800 ppm was determined as 100%. In data set [4], this compound showed a mortality at 500 ppm of 70%, a mortality at 1000 ppm of 85% and a mortality at 2000 ppm of 100%.
In data set [1], `Cc1ccc(N(CC#N)SN(C)C(=O)Oc2cccc3c2OC(C)(C)C3)cc1` [Example 36] gave an LD50 at 168 h of 70 mg/kg. For the same compound, the LD50 in data set [2] (24 h) is 59.3 mg/kg. In data set [3], the mortality at 200 ppm worked out at 60%, the mortality at 400 ppm is 75% and the mortality at 800 ppm stood at 95%. In data set [4], this compound had a mortality at 500 ppm of 65%, a mortality at 1000 ppm of 80% and a mortality at 2000 ppm of 100%.
Consider `CN(SN(CC#N)CC#N)C(=O)Oc1cccc2c1OC(C)(C)C2` [Example 1, 2,3-dihydro-2,2-dimethylbenzofuran-7-yl N-[N,N-bis(cyanomethyl)aminosulfenyl]-N-methyl-carbamate], for which the LD50 at 168 h in data set [1] was found to be 58 mg/kg. In addition, in data set [2] (24 h), the LD50 was determined as 21.3 mg/kg. For the same compound, in data set [3], the mortality at 200 ppm worked out at 50%, the mortality at 400 ppm was found to be 85% and the mortality at 800 ppm turned out to be 100%. Further, in data set [4], the mortality at 500 ppm was found to be 65%, the mortality at 1000 ppm was found to be 80% and the mortality at 2000 ppm was 100%.
`CCCCN(CCC(=O)OCC)SN(C)C(=O)Oc1cccc2c1OC(C)(C)C2` [Example 27, 2,3-Dihydro-2,2-dimethylbenzofuran-7-yl N-(N-n-butyl-N-ethoxycarbonylethylaminosulfenyl)-N-methylcarbamate]: the LD50 at 168 h in data set [1] was 105 mg/kg. The compound further had an LD50 in data set [2] (24 h) of 13.8 mg/kg. For the same compound, in data set [3], the mortality at 200 ppm was 65%, the mortality at 400 ppm worked out at 90% and the mortality at 800 ppm is 100%. For the same compound, in data set [4], the mortality at 500 ppm was 75%, the mortality at 1000 ppm stood at 90% and the mortality at 2000 ppm is 100%.
On to `CCOC(=O)CN(CCC#N)SN(C)C(=O)Oc1cccc2c1OC(C)(C)C2` [Example 8], for which the LD50 at 168 h in data set [1] was 105 mg/kg. This compound also registered an LD50 in data set [2] (24 h) of 24.6 mg/kg. In data set [3], this compound returned a mortality at 200 ppm of 60%, a mortality at 400 ppm of 85% and a mortality at 800 ppm of 95%. In data set [4], this compound had a mortality at 500 ppm of 75%, a mortality at 1000 ppm of 85% and a mortality at 2000 ppm of 100%.
In data set [1], `CCCCCCN(CCC(=O)OCC)SN(C)C(=O)Oc1cccc2c1OC(C)(C)C2` [Example 31] gave an LD50 at 168 h of 135 mg/kg. Also, the LD50 in data set [2] (24 h) is 33.1 mg/kg. In data set [3], this compound yielded a mortality at 200 ppm of 55%, a mortality at 400 ppm of 75% and a mortality at 800 ppm of 100%. In data set [4], this compound had a mortality at 500 ppm of 60%, a mortality at 1000 ppm of 80% and a mortality at 2000 ppm of 100%.
Take `CNC(=O)Oc1ccccc1OC(C)C` [2-Isopropoxyphenyl-N--methyl-carbamate, reference compound]: the median lethal dose (LD50) in data set [2] (house fly, locally applied in acetone, mortality 24 hours later, Probit method, read-out: LD50) worked out at 22.5 mg/kg. For the same compound, in data set [3] (200 ppm active ingredient, from 50% wettable powder, three days later, read-out: Mortality), the mortality at 200 ppm is 0%. Further, the mortality at 400 ppm in data set [3] (400 ppm active ingredient, from 50% wettable powder, three days later, read-out: Mortality) amounted to 0%. Moreover, in data set [3] (800 ppm active ingredient, from 50% wettable powder, three days later, read-out: Mortality), the mortality at 800 ppm was 0%.
